Measured values from patent US12673041B2, “4-aminobut-2-enamide derivatives and salt thereof” (TAIHO PHARMACEUTICAL CO., LTD., priority 2019, dated 2026).

Tests used:
MIA PaCa-2 cells = experiment: Growth inhibition activity on KRAS-G12C mutant cell line (MIA PaCa-2); assay type: cell-based; conditions: Homo sapiens, 72 h; MIA PaCa-2, 3-day culture, CellTiter-Glo 3D
Description: MIA PaCa-2 cells (given by Sumitomo Dainippon Pharma Co., Ltd.), which are a KRAS-G12C mutant human pancreas cancer cell line, were suspended in a 10% fetal bovine serum-containing RPMI1640 medium (manufactured by Fujifilm Wako Pure Chemical Corporation.). The cell suspension was seeded into each well of a 384-well U bottom microplate and cultured in an incubator containing 5% CO2 gas at 37° C. for 1 day. The compounds obtained in the “Preparation of Compounds” section were used as test compounds and were dissolved in DMSO, respectively, and each test compound was diluted with DMSO to give a concentration 500 times the final concentration. The resultant solution of the test compound in DMSO was diluted with the medium used for suspending cells and added to each well of the cell-culture plate to give a DMSO final concentration of 0.2%, followed by culture in an incubator containing 5% CO2 gas at 37° C. for another 3 days. The cell count after 3-day culture in the presence of the test compound was measured using CellTiter-Glo 3D Reagent (manufactured by Promega Corporation). All wells were added with CellTiter-Glo 3D Reagent and mixed for 10 minutes. 30 minutes after mixing, luminescence was measured by a plate reader. The growth inhibition rate was calculated from the following equation, and the concentration of the test compound at which 50% inhibition was achieved (IC50 (nM)) was determined. […] Growth Inhibition Rate (%)=(C−T)/(C)×100 • T: the emission intensity in a well into which a test compound was added. • C: the emission intensity in a well into which a test compound was not added.

[1] = target: Gppcp-bound recombinant K-Ras4B G12C mutant protein (amino acids 1-169, C51S/C80L/C118S) (Homo sapiens, UniProt P01116, C118S/C51S/C80L/G12C); experiment: KRASG12C binding assay (LC-MS compound binding rate); conditions: test compound final concentration 0.5 μM, 25° C., 1 hour
Outline: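 Gppcp-bound K-Ras4B G12C (aa 1-169, C51S/C80L/C118S) at 50 nM in 1×TBS, 0.1 mM TCEP, 0.25 mM MgCl2, 50 μM Gppcp was incubated 1 hour at 25° C with compound at 0.5 μM final. Intact-protein LC-MS gave binding rate as single-adduct signal over total KRAS signal, graded A (≥80%) to E (<20%).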

[2] = target: T1, GMPPNP-bound KRAS G12C protein and cRAF RAS-binding domain (cRAF-RBD) (Homo sapiens, UniProt P01116, G12C); experiment: Inhibitory activity on interaction between KRAS G12C and cRAF (Alpha technology); assay type: biochemical; conditions: GMPPNP-bound KRAS G12C incubated with compound at 25° C. for 1 hour, then cRAF-RBD, Alpha signal; read-out: IC50
T1 construct: made in house; host or cells: E. coli
Outline: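 GMPPNP-loaded His-KRAS G12C (aa 1-169) preincubated 1 h at 25 °C with compound (pH 7.5 Tris, 1 mM MgCl2, TCEP, Tween 20), then cRAF-RBD (aa 50-132) and Alpha reagents added for 1.5 h at RT. Inhibition scaled between DMSO (0%) and GDP-bound KRAS (100%); IC50 by curve fitting.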

Row | Structure (SMILES) | IC50 (MIA PaCa-2 cells) [nM] | binding rate [1] | IC50 [2] [nM]
1 | CO[C@H]1CC[C@H](NC/C=C/C(=O)Nc2ccc(C(=O)c3ccc4c(-c5c(C)cc6c(ncn6C)c5C(C)C)cccn34)cc2C#N)CC1 [Example 64, (E)-N-(2-cyano-4-(8-(4-isopropyl-1,6-dimethyl-1H-benzo[d]imidazol-5-yl)indolizine-3-carbonyl)phenyl)-4-(((1r,4r)-4-methoxycyclohexyl)amino)but-2-enamide] | 69 | A (A binding rate of 80% or more is rated “A”) | 82
2 | CN(C)C/C=C/C(=O)Nc1ccc(C(=O)c2ccc3c(-c4cc5ncn(C)c5cc4C(F)(F)F)cccn23)cc1C#N [Example 66, (E)-N-(2-cyano-4-(8-(1-methyl-6-(trifluoromethyl)-1H-benzo[d]imidazol-5-yl)indolizine-3-carbonyl)phenyl)-4-(dimethylamino)but-2-enamide] | 240 | C (a binding rate of 40% or more and less than 60% is rated “C”) | 84
3 | Cn1cnc2cc(-c3cccn4c(C(=O)c5cc(F)c(NC(=O)/C=C/CNC(C)(C)C)c(F)c5)cnc34)c(C(F)(F)F)cc21 [Example 67, (E)-4-(tert-butylamino)-N-(2,6-difluoro-4-(8-(1-methyl-6-(trifluoromethyl)-1H-benzo[d]imidazol-5-yl)imidazo[1,2-a]pyridine-3-carbonyl)phenyl)but-2-enamide] | 560 | B (a binding rate of 60% or more and less than 80% is rated “B”) | 63
4 | CO[C@H]1CC[C@H](NC/C=C/C(=O)Nc2c(F)cc(C(=O)c3cnc4c(-c5cc6ncn(C)c6cc5C(F)(F)F)cccn34)cc2F)CC1 [Example 68, (E)-N-(2,6-difluoro-4-(8-(1-methyl-6-(trifluoromethyl)-1H-benzo[d]imidazol-5-yl)imidazo[1,2-a]pyridine-3-carbonyl)phenyl)-4-(((1r,4r)-4-methoxycyclohexyl)amino)but-2-enamide] | 240 | B (a binding rate of 60% or more and less than 80% is rated “B”) | 57
5 | CO[C@H]1CC[C@H](NC/C=C/C(=O)Nc2c(F)cc(C(=O)c3ccc4c(-c5cc6ncn(C)c6cc5C(F)(F)F)cccn34)cc2F)CC1 [Example 70, (E)-N-(2,6-difluoro-4-(8-(1-methyl-6-(trifluoromethyl)-1H-benzo[d]imidazol-5-yl)indolizine-3-carbonyl)phenyl)-4-(((1r,4r)-4-methoxycyclohexyl)amino)but-2-enamide] | 72 | A (A binding rate of 80% or more is rated “A”) | 27
6 | Cc1cc2c(cc1-c1cccn3c(C(=O)c4cc(F)c(NC(=O)/C=C/CNC(C)(C)C)c(F)c4)ccc13)ncn2C [Example 72, (E)-4-(tert-butylamino)-N-(4-(8-(1,6-dimethyl-1H-benzo[d]imidazol-5-yl)indolizine-3-carbonyl)-2,6-difluorophenyl)but-2-enamide] | 200 | A (A binding rate of 80% or more is rated “A”) | 34
7 | CO[C@H]1CC[C@H](NC/C=C/C(=O)Nc2c(F)cc(C(=O)c3ccc4c(-c5cc6ncn(C)c6cc5C)cccn34)cc2F)CC1 [Example 73, (E)-N-(4-(8-(1,6-dimethyl-1H-benzo[d]imidazol-5-yl)indolizine-3-carbonyl)-2,6-difluorophenyl)-4-(((1r,4r)-4-methoxycyclohexyl)amino)but-2-enamide] | 280 | A (A binding rate of 80% or more is rated “A”) | 32
8 | CO[C@H]1CC[C@H](N(C)C/C=C/C(=O)Nc2ccc(C(=O)c3ccc4c(-c5cc6ncn(C)c6cc5C(F)(F)F)cccn34)cc2C#N)CC1 [Example 78, (E)-N-(2-cyano-4-(8-(1-methyl-6-(trifluoromethyl)-1H-benzo[d]imidazol-5-yl)indolizine-3-carbonyl)phenyl)-4-(((1r,4r)-4-methoxycyclohexyl)(methyl)amino)but-2-enamide] | 400 | C (a binding rate of 40% or more and less than 60% is rated “C”) | 96
9 | CO[C@H]1CC[C@H](NC/C=C/C(=O)Nc2ccc(C(=O)c3cnc4c(-c5cc6ncn(C)c6cc5C(F)(F)F)cccn34)cc2C#N)CC1 [Example 80, (E)-N-(2-cyano-4-(8-(1-methyl-6-(trifluoromethyl)-1H-benzo[d]imidazol-5-yl)imidazo[1,2-a]pyridine-3-carbonyl)phenyl)-4-(((1r,4r)-4-methoxycyclohexyl)amino)but-2-enamide] | 190 | A (A binding rate of 80% or more is rated “A”) | 27
10 | COc1cc2c(cc1-c1cccn3c(C(=O)c4ccc(NC(=O)/C=C/CN[C@H]5CC[C@H](OC)CC5)c(C#N)c4)ccc13)ncn2C [Example 81, (E)-N-(2-cyano-4-(8-(6-methoxy-1-methyl-1H-benzo[d]imidazol-5-yl)indolizine-3-carbonyl)phenyl)-4-(((1r,4r)-4-methoxycyclohexyl)amino)but-2-enamide] | 70 | A (A binding rate of 80% or more is rated “A”) | 21
